Experimental data published in paper PMC8232621, “Antimicrobial Activity of a Library of Thioxanthones and Their Potential as Efflux Pump Inhibitors” (Pharmaceuticals, 2021).

Test system: Caco-2 cells
Test: Cytotoxicity in Caco-2 cells, sulforhodamine B (SRB) binding assay
Assay type: cell-based, human
Details: 24 h after exposure
Method: Caco-2 cells were routinely cultured in 75 cm^2 flasks using DMEM with 4.5 g/L glucose supplemented with 10% FBS, 1% NEAA and 1% antibiotic. Cells were maintained at 37 °C, in a 5% CO2 and 95% air atmosphere, and the cell culture medium was changed every 2−3 days. Cultures were passaged weekly by trypsinization (0.25% trypsin/1 mM EDTA). In all experiments, the cells were seeded at a density of 60,000 cells/cm^2 and used three days after seeding, when confluence was reached. The cells used in all experiments were taken between the 55th and 64th passages.
The compounds’ (0−20 μM) cytotoxicity was evaluated by the neutral red (NR) uptake and Sulforhodamine B (SRB) binding assays, 24 h after exposure. Caco-2 cells were seeded onto 96-well plates at a density of 60,000 cells/cm^2 and exposed, after reaching confluence (three days after seeding), to the compounds (0–20 μM), in a fresh cell culture medium. Triton™ X-100 (0.1%) was used as a positive control.
The SRB binding assay is based on the pH-dependent binding of SRB to basic amino acids of cellular proteins under mild acidic conditions. […] The bounded SRB was then extracted with a Tris base solution (10 mM, pH 10.5) and the absorbance was measured, at 540 nm, in a multi-well plate reader (PowerWaveX BioTek Instruments, VT, USA). […]

In the case of `CCCOc1ccc2nc(NCc3ccccc3Cl)nc3c2c1Sc1ccccc1-3` [Compound 17], the “SRB binding vs control cells” value (10 µM) is reported as “no significant differences” and the “SRB binding (relative to control cells)” value (20 µM) is reported as 105.8%.
